Results on 20 molecules are retold here after patent US5153180A, “Fluorinated nucleosides and process for treating retrovirus infections therewith” (priority 1990, dated 1992).

Usually CC50 stands for the concentration giving 50% cytotoxicity.

Molecules are shown by their SMILES. Like-named read-outs stand apart in the source and are kept apart here.

The test system of one data set is HIV. Kind of data set: Inhibition of the cytopathic effect of HIV on MT-4 cells. The data set is classed as cell-based. As to conditions: MT-4 cells, 6 days of incubation; for EC50: Human immunodeficiency virus 1, MT4, 144 h, read-out: 50% antiviral dose (ED50). How it is done:
(§1) Under in vitro conditions immortalized T-lymphocytes can be killed within few days by the cytopathic effect of HIV. […] For this purpose about 20,000 MT-4 cells (Harada et al. Science 229, 563 (1985)) Were infected with HIV (titer: 0.04 m.o.i.) and incubated in the presence or absence of varying concentrations of compounds according to formula I, with 10% fetal calf serum (FCS) in 200 μl RPMI medium. After 6 days of incubation the viable cells were counted that were excluded from trypan blue staining.

The next data set in a line: in vitro. As to conditions: human, mt-4 cells. How it is done: as §1
The target in data set [1] is T1, HIV-associated reverse transcriptase (HIV-RT) (Human immunodeficiency virus type 1 group M subtype B, UniProt P04585).
T1 construct: HIV-associated reverse transcriptase (HIV-RT)
Kind of data set: Inhibition of HIV-associated reverse transcriptase (polymerization of artificial templates). The format is biochemical. More on the design: efficacy against HIV-associated reverse transcriptase: dose or concentration left out as unconfirmed. Particulars: for IC50: read-out: ID50 HIV-RT. The source says: At first the triphosphates of some compounds according to formula I were investigated for their ability to inhibit the polymerization of artificial templates (such as polyAoligodT and polyColigodG) catalyzed by HIV-associated reverse transcriptase (HIV-RT) according to the method described by A. D. Hoffman et al., Virology 147, 326, 1985. […] FdTTP, FdUTP and FdGTP are among the strongest inhibitors found so far for HIV-RT. In comparison the ID50 for 3'-azidothymidinetriphosphate was estimated under our conditions to be about […].

In data set [2] the target is T2, cellular DNA polymerase α (Bos taurus, UniProt A0AAA9TD94).
T2 construct: purified from calf thymus; from tissue; host or cells: calf thymus
T2 sequence (A0AAA9TD94 1-1441): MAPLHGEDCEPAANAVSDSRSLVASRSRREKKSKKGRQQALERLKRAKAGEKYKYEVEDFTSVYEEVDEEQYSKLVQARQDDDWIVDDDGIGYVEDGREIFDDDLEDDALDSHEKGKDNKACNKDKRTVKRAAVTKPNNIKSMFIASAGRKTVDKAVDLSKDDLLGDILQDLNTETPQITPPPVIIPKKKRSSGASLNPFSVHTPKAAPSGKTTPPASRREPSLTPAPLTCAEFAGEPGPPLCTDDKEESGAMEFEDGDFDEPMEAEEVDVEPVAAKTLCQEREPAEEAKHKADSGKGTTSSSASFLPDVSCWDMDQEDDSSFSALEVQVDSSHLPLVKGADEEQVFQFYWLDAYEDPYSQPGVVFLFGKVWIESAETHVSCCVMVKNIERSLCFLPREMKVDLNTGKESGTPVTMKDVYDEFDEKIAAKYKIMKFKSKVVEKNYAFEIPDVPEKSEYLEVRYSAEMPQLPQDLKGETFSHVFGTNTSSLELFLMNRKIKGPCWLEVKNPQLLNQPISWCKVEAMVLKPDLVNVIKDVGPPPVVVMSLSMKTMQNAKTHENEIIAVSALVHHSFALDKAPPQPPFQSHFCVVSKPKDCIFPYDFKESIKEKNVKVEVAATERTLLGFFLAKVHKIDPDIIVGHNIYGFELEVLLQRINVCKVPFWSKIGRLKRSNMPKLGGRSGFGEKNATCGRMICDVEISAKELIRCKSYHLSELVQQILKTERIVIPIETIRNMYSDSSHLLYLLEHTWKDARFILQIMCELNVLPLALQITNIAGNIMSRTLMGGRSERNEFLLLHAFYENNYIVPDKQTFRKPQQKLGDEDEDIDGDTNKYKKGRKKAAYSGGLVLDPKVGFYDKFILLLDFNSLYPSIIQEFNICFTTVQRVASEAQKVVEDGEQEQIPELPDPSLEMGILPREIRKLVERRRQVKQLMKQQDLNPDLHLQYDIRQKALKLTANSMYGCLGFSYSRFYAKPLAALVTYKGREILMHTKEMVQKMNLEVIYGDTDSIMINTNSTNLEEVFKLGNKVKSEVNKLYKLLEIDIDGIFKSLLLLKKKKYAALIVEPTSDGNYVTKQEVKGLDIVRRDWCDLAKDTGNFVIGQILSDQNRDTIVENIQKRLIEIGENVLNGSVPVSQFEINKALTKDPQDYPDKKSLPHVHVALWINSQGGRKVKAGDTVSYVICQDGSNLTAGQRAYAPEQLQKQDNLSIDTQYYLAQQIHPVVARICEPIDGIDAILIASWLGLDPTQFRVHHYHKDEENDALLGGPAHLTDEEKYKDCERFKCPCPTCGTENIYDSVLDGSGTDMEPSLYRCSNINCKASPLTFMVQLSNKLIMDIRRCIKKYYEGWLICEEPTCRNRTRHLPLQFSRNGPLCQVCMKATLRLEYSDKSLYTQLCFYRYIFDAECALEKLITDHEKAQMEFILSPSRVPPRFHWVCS
Kind of data set: Effect on cellular DNA polymerase α. The data set is classed as biochemical. Particulars: enzyme purified from calf thymus; read-out: ID50 cellular polymerase α. An excerpt: (§2) The strong inhibiting effect of 3'-fluoro-substituted deoxynucleotides against HIV-reverse transcriptase can be utilized therapeutically only if the cellular DNA polymerases, especially the DNA polymerase α which is required for the replication of the cellular DNA, remain substantially unaffected. […] The ID50 values for the DNA polymerase β responsible for cellular DNA repair vary between 1,8-15 μm. Both enzymes cellular DNA polymerase α and β were purified from calf thymus and tested according to the method of E. Matthes et al., Biomed. Biochim. Acta 44. K63 (1985).

The target in data set [3] is T3, cellular DNA polymerase β (Bos taurus, UniProt Q27958).
T3 construct: purified from calf thymus; from tissue; host or cells: calf thymus
Kind of data set: Effect on cellular DNA polymerase β. The format is biochemical. As to conditions: enzyme purified from calf thymus; read-out: ID50 cellular polymerase β.
Excerpt: as §2

Data set [4] has as its target T4, thymidine-phosphorylase from human spleen (Homo sapiens, UniProt P19971).
T4 construct: thymidine-phosphorylase from human spleen; from tissue; host or cells: human spleen
T4 sequence (P19971 11-482): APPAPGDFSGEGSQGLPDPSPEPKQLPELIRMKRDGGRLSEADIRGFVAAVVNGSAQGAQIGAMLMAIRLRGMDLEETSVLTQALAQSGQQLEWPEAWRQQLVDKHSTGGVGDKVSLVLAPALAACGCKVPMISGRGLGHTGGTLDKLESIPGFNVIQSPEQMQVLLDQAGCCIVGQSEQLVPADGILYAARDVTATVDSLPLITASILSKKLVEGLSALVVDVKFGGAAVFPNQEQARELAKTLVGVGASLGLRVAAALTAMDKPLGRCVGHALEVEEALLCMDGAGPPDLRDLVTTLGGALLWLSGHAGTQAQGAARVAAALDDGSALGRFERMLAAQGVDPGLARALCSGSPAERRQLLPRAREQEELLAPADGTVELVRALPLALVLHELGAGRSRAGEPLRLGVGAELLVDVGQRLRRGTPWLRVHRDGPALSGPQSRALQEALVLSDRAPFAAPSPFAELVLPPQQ
The data set can be described thus: Phosphorolytic cleavage by thymidine-phosphorylase. The data set is classed as in vitro ADME. Particulars: for metabolised at 3 h, 1000 µM: 1 mM, within 3 hours, read-out: extent of cleavage by thymidine-phosphorylase. An excerpt:
Therefore FTdR, FddBrUrd and FddFUrd were investigated for their ability to be cleaved by thymidine-phosphorylase from human spleen.

The mark [5] stands for this setting: concentration required for 50% inhibition.

Turning to `CCc1cn([C@H]2C[C@H](F)[C@@H](CO)O2)c(=O)[nH]c1=O` [FddEtUrd, 2'-3'-dideoxy-3'-fluoro-5-ethyluridine], the EC50 in the data set on HIV was greater than 500 µM. For the same molecule, in the data set “in vitro”, the cytotoxic concentration (CC50) at 144 h was greater than 500 µM.

Consider `O=c1[nH]c(=O)n([C@H]2C[C@H](F)[C@@H](COP(=O)(O)OP(=O)(O)OP(=O)(O)O)O2)cc1F` [Compound F5FdUTP, 2'-3'-dideoxy-3'-fluoro-5-fluorouridine-5'-triphosphate], for which the IC50 is 0.45 µM in data set [1] (setting [5]), greater than 200 µM in data set [2] and 15 µM in data set [3].

As for `Nc1nc(N)c2ncn([C@H]3C[C@H](F)[C@@H](CO)O3)c2n1` [FddDAPR, 2'-3'-dideoxy-3'-fluoro-2,6-diaminopurineriboside], the EC50 in the data set on HIV was 6 µM. The molecule further yielded a CC50 at 144 h in “in vitro” of 480 µM.

For `Nc1nc2c(ncn2[C@H]2C[C@H](F)[C@@H](CO)O2)c(=O)[nH]1` [FddGuo, 2'-3'-dideoxy-3'-fluoroguanosine], the EC50 in the data set with HIV came to 5 µM. In addition, it took 250 µM to reach half-maximal cytotoxicity in “in vitro” (CC50 at 144 h).

In turn, `Cc1cn([C@H]2C[C@H](O)[C@@H](CO)O2)c(=O)[nH]c1=O` [thymidine, reference compound] yielded a metabolised at 2 h in data set [4] of 90%.

With `Cc1cn([C@H]2C[C@H](F)[C@@H](CO)O2)c(=O)nc1N` [FddMCyt, 2'-3'-dideoxy-3'-fluoromethylcytidine], in the data set on HIV, the EC50 came out at 125 µM. Moreover, in the data set “in vitro”, the cytotoxic concentration (CC50) at 144 h was found to be 125 µM.

For `N#Cc1cn([C@H]2C[C@H](F)[C@@H](CO)O2)c(=O)[nH]c1=O` [FddCNUrd, 2'-3'-dideoxy-3'-fluoro-5-cyanouridine], the “50% antiviral dose (ED50)” value in the data set on HIV is reported as “not detectable”. Besides, the cytotoxic concentration (CC50) at 144 h in the data set “in vitro” was greater than 500 µM.

As for `O=c1ccn([C@@H]2O[C@H](CO)[C@@H](F)[C@@H]2O)c(=O)[nH]1` [FaraU, 3'-deoxy-3'-fluoroarabinosyluracil], the EC50 in the data set with HIV is greater than 500 µM. Moreover, the half-maximal cytotoxic concentration (CC50) at 144 h in the data set “in vitro” was greater than 500 µM.

As for `Cc1cn([C@H]2C[C@H](N=[N+]=[N-])[C@@H](CO[P@](=O)(O)O[P@](=O)(O)OP(=O)(O)O)O2)c(=O)[nH]c1=O` [3'-azidothymidinetriphosphate, reference compound], in data set [1] (estimated under our conditions), the IC50 was roughly 50 µM.

With `O=c1ccn([C@H]2C[C@H](F)[C@@H](COP(=O)(O)OP(=O)(O)OP(=O)(O)O)O2)c(=O)[nH]1` [FdUTP, 2'-3'-dideoxy-3'-fluorouridine-5'-triphosphate], the IC50 in data set [1] (setting [5]) was 0.07 µM; in data set [2], greater than 200 µM; in data set [3], 3 µM.

On to `Nc1nc2c(ncn2[C@H]2C[C@H](F)[C@@H](COP(=O)(O)OP(=O)(O)OP(=O)(O)O)O2)c(=O)[nH]1` [FdGTP, 2'-3'-dideoxy-3'-fluoroguanosine-5'-triphosphate], for which the IC50 in data set [1] (setting [5]) is 0.05 µM; in data set [2], greater than 200 µM; in data set [3], 1.8 µM.

For `O=c1[nH]c(=O)n([C@@H]2O[C@H](CO)[C@@H](F)[C@@H]2O)cc1Br` [FaraBrU, 3'-deoxy-3'-fluoroarabinosyl-5-bromouracil], the EC50 in the data set with HIV was greater than 100 µM. This molecule also came in with a CC50 at 144 h in the data set “in vitro” greater than 100 µM.

In the case of `O=c1[nH]c(=O)n([C@H]2C[C@H](F)[C@@H](CO)O2)cc1CO` [FddHMUrd, 2'-3'-dideoxy-3'-fluoro-5-hydroxymethyluridine], the EC50 with HIV is greater than 500 µM. The same molecule yielded a CC50 at 144 h in the data set “in vitro” greater than 500 µM.

Regarding `O=c1[nH]c(=O)n([C@H]2C[C@H](F)[C@@H](CO)O2)cc1Br` [FddBrUrd, 2'-3'-dideoxy-3'-fluoro-5-bromouridine], the metabolised at 3 h, 1000 µM in data set [4] lay within 3 to 8%. The EC50 in the data set on HIV is 5 µM. This molecule had a 50% cytotoxic concentration (CC50) at 144 h in the data set “in vitro” of 190 µM.

`CCc1cn([C@H]2C[C@H](F)[C@@H](COP(=O)(O)OP(=O)(O)OP(=O)(O)O)O2)c(=O)[nH]c1=O` [Compound F5EtdUTP, 2'-3'-dideoxy-3'-fluoro-5-ethyluridine-5'-triphphosphate]: the values for the IC50 in data set [1] (setting [5]), in data set [2] and in data set [3] were 7.5 µM, 10 µM and 4 µM, respectively.

With `Nc1ncnc2c1ncn2[C@H]1C[C@H](F)[C@@H](CO)O1` [FddAdo, 2'-3'-dideoxy-3'-fluoroadenosine], the EC50 in the data set on HIV was greater than 100 µM. Moreover, the cytotoxic concentration (CC50) at 144 h in the data set “in vitro” stood at 75 µM.

As to `Cc1cn([C@H]2C[C@H](Cl)[C@@H](COP(=O)(O)OP(=O)(O)OP(=O)(O)O)O2)c(=O)[nH]c1=O` [3'-chloro-2',3'-dideoxythymidine triphosphate, reference compound], the “efficacy against HIV-associated reverse transcriptase” value in data set [1] is on record as “completely ineffective”.

Take `O=c1[nH]c(=O)n([C@H]2C[C@H](F)[C@@H](CO)O2)cc1F` [FddFUrd, 2'-3'-dideoxy-3'-fluoro-5-fluorouridine]: the metabolised at 3 h, 1000 µM in data set [4] was 3 to 8%. In the data set on HIV, the “50% antiviral dose (ED50)” value is given as “not detectable”. Moreover, the CC50 at 144 h in “in vitro” was greater than 200 µM.

On to `Nc1ccn([C@H]2C[C@H](F)[C@@H](CO)O2)c(=O)n1` [FddCyt, 2'-3'-dideoxy-3'-fluorocytidine], for which the EC50 with HIV was found to be 25 µM. Besides, in “in vitro”, it took 62 µM to reach half-maximal cytotoxicity (CC50 at 144 h).

For `Nc1ccn([C@@H]2O[C@H](CO)[C@@H](F)[C@@H]2O)c(=O)n1` [FaraC, 3'-deoxy-3'-fluoroarabinosylcytosine], in the data set with HIV, the EC50 was greater than 100 µM. Also, the cytotoxic concentration (CC50) at 144 h in the data set “in vitro” is greater than 100 µM.
